Experimental data as given in patent US20240197871A1, “COMBINATION OF A CAR T CELL THERAPY AND AN IMMUNOMODULATORY COMPOUND FOR TREATMENT OF LYMPHOMA” (Juno Therapeutics, Inc., priority 2021, published 2024).

Tested on: chronically stimulated anti-CD19 CAR T cells
Assay: RNA-seq gene expression of chronically stimulated CAR T cells
Assay type: cell-based, human
Procedure: Five days after re-challenge, CAR T cells were sorted from tumor spheroids, and gene expression was analyzed by RNA sequencing (RNA-seq). Libraries for RNA-seq were sequenced, and reads were mapped to the Genome Reference Consortium Human Build 38 (GRCh38) human reference genome. Gene expression levels were quantified, and differential expression was performed using DESeq2. Gene expression was compared between chronically stimulated CAR T cells treated with Compound C during stimulation and untreated chronically stimulated CAR T cells, as well as between untreated chronically stimulated CAR T cells and non-stimulated CAR T cells. Differential expression was calculated based on treatment effects with 1 nM and 10 nM of the compounds. Differential locus selection cut offs were q≤0.05 and absolute log2 fold change ≥0.5.
Pathway analysis of CAR T RNA-seq data using the Kyoto Encyclopedia of Genes and Genomes (KEGG) was also performed using clusterProfiler. Pathways whose upregulation by chronic stimulation was prevented or reduced by treatment with Compound C are shown in FIG. 3J and include specific cell proliferation pathways. Gene ratios as shown in FIG. 3J were calculated as the percentage of significant genes over total genes in a given pathway.
Gene expression of chronically stimulated CAR T cells was also analyzed by RNA sequencing as in Example 3. […]

## O=C1CC[C@H](N2C(=O)c3cccc(NCc4ccc(CN5CC(N6CCOCC6)C5)cc4F)c3C2=O)C(=O)N1 [Compound C, (S)-2-(2,6-dioxopiperidin-3-yl)-4-((2-fluoro-4-((3-morpholinoazetidin-1-yl)methyl)benzyl)amino)isoindoline-1,3-dione]
Treatment during chronic stimulation (concurrent), 1 nM and 10 nM
  gene expression vs untreated chronically stimulated CAR T cells (RNA-seq): altered gene expression
Treatment during re-challenge (rescue)
  gene expression vs untreated chronically stimulated CAR T cells (RNA-seq): altered gene expression
